# Target: T1, human PAH with the R408W mutation (Homo sapiens, UniProt P00439, R408W)
# T1 construct: expressed in transfected cells
# T1 sequence (P00439 1-452 R408W): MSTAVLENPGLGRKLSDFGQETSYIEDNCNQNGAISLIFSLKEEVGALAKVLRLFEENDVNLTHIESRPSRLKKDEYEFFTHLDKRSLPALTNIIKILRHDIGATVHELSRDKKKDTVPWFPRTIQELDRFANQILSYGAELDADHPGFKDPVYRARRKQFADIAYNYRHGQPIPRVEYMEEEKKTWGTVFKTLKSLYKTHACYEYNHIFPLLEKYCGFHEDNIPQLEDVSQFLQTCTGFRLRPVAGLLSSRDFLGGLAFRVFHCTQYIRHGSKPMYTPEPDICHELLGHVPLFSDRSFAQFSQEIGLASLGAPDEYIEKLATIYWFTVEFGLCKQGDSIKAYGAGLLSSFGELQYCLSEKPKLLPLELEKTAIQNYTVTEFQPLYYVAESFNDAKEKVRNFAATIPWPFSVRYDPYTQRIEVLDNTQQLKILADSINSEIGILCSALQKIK
# Assay: Cell Based Phenylalanine Flux Assay;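 also: after compound treatment, cells received sepiapterin plus isotope-labelled Phenylalanine for 4 hours, then labelled Tyrosine in the medium was quantified, 10-point 2-fold dilution series run in duplicate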
# Conditions: A375 cells expressing human R408W PAH; 24 hrs compound incubation; 13C-Tyrosine by LC-MS; average where tested multiple times; read-out: AC50
row,SMILES,AC50
1,"O=C(c1nnc(-c2cnn(C(F)F)c2)o1)N1CCc2[nH]cnc2[C@H]1c1cc2c(C(F)(F)F)cccn2n1 [Example 906, (S)-(5-(1-(difluoromethyl)-1H-pyrazol-4-yl)-1,3,4-oxadiazol-2-yl)(4-(4-(trifluoromethyl)pyrazolo[1,5-a]pyridin-2-yl)-6,7-dihydro-1H-imidazo[4,5-c]pyridin-5(4H)-yl)methanone]",< 500 nM
2,"O=C(c1nnc(-c2cnn(C(F)F)c2)o1)N1CCc2[nH]cnc2[C@@H]1c1cc2c(C(F)(F)F)cccn2n1 [Example 907, (R)-(5-(1-(difluoromethyl)-1H-pyrazol-4-yl)-1,3,4-oxadiazol-2-yl)(4-(4-(trifluoromethyl)pyrazolo[1,5-a]pyridin-2-yl)-6,7-dihydro-1H-imidazo[4,5-c]pyridin-5(4H)-yl)methanone]",> 5000 nM
3,"O=C(c1nnc(-c2ccn(C(F)F)n2)o1)N1CCc2[nH]cnc2[C@@H]1c1cc2c(C(F)(F)F)cccn2n1 [Example 908, (R)-(5-(1-(difluoromethyl)-1H-pyrazol-3-yl)-1,3,4-oxadiazol-2-yl)(4-(4-(trifluoromethyl)pyrazolo[1,5-a]pyridin-2-yl)-6,7-dihydro-1H-imidazo[4,5-c]pyridin-5(4H)-yl)methanone]",1000 to 5000 nM
4,"O=C(c1nnc(-c2ccn(C(F)F)n2)o1)N1CCc2[nH]cnc2[C@H]1c1cc2c(C(F)(F)F)cccn2n1 [Example 909, (S)-(5-(1-(difluoromethyl)-1H-pyrazol-3-yl)-1,3,4-oxadiazol-2-yl)(4-(4-(trifluoromethyl)pyrazolo[1,5-a]pyridin-2-yl)-6,7-dihydro-1H-imidazo[4,5-c]pyridin-5(4H)-yl)methanone]",< 500 nM
5,"COc1ccc(-c2nnc(C(=O)N3CCc4[nH]cnc4[C@H]3c3cc4cccc(C)n4n3)o2)nc1 [Example 910, (S)-(5-(5-methoxypyridin-2-yl)-1,3,4-oxadiazol-2-yl)(4-(7-methylpyrazolo[1,5-a]pyridin-2-yl)-6,7-dihydro-1H-imidazo[4,5-c]pyridin-5(4H)-yl)methanone]",500 to 1000 nM
6,"COc1ccc(-c2nnc(C(=O)N3CCc4[nH]cnc4[C@@H]3c3cc4cccc(C)n4n3)o2)nc1 [Example 911, (R)-(5-(5-methoxypyridin-2-yl)-1,3,4-oxadiazol-2-yl)(4-(7-methylpyrazolo[1,5-a]pyridin-2-yl)-6,7-dihydro-1H-imidazo[4,5-c]pyridin-5(4H)-yl)methanone]",> 5000 nM
7,"Cc1cccc2cc([C@H]3c4nc[nH]c4CCN3C(=O)c3nnc(-c4ncccc4F)o3)nn12 [Example 913, (R)-(5-(3-fluoropyridin-2-yl)-1,3,4-oxadiazol-2-yl)(4-(7-methylpyrazolo[1,5-a]pyridin-2-yl)-6,7-dihydro-1H-imidazo[4,5-c]pyridin-5(4H)-yl)methanone]",> 5000 nM
8,"Cc1cccc2cc([C@@H]3c4nc[nH]c4CCN3C(=O)c3nnc(-c4cnn(C(F)F)c4)o3)nn12 [Example 914, (S)-(5-(1-(difluoromethyl)-1H-pyrazol-4-yl)-1,3,4-oxadiazol-2-yl)(4-(7-methylpyrazolo[1,5-a]pyridin-2-yl)-6,7-dihydro-1H-imidazo[4,5-c]pyridin-5(4H)-yl)methanone]",500 to 1000 nM
9,"Cc1nc(C(=O)N2CCc3[nH]cnc3[C@H]2c2cc3c(C)cccn3n2)n(C)n1 [Example 916, (S)-(1,3-dimethyl-1H-1,2,4-triazol-5-yl)(4-(4-methylpyrazolo[1,5-a]pyridin-2-yl)-6,7-dihydro-1H-imidazo[4,5-c]pyridin-5(4H)-yl)methanone]",< 500 nM
10,"COc1cccn2nc([C@@H]3c4nc[nH]c4CCN3C(=O)c3cc(C)nn3C)cc12 [Example 918, (S)-(1,3-dimethyl-1H-pyrazol-5-yl)(4-(4-methoxypyrazolo[1,5-a]pyridin-2-yl)-6,7-dihydro-1H-imidazo[4,5-c]pyridin-5(4H)-yl)methanone]",< 500 nM
11,"COc1cccn2nc([C@H]3c4nc[nH]c4CCN3C(=O)c3cc(C)nn3C)cc12 [Example 919, (R)-(1,3-dimethyl-1H-pyrazol-5-yl)(4-(4-methoxypyrazolo[1,5-a]pyridin-2-yl)-6,7-dihydro-1H-imidazo[4,5-c]pyridin-5(4H)-yl)methanone]",> 5000 nM
12,"Cn1cnc(-c2nc(C(F)F)c(C(=O)N3CCc4[nH]cnc4[C@H]3c3cc4c(F)cccn4n3)o2)c1 [Example 921, (S)-(4-(difluoromethyl)-2-(1-methyl-1H-imidazol-4-yl)oxazol-5-yl)(4-(4-fluoropyrazolo[1,5-a]pyridin-2-yl)-6,7-dihydro-1H-imidazo[4,5-c]pyridin-5(4H)-yl)methanone]",< 500 nM
13,"Cc1cccn2nc([C@@H]3c4nc[nH]c4CCN3C(=O)c3nnc(C(C)(C)F)o3)cc12 [Example 922, (S)-(5-(2-fluoropropan-2-yl)-1,3,4-oxadiazol-2-yl)(4-(4-methylpyrazolo[1,5-a]pyridin-2-yl)-6,7-dihydro-1H-imidazo[4,5-c]pyridin-5(4H)-yl)methanone]",< 500 nM
14,"Cc1cccn2nc([C@H]3c4nc[nH]c4CCN3C(=O)c3nnc(C(C)(C)F)o3)cc12 [Example 923, (R)-(5-(2-fluoropropan-2-yl)-1,3,4-oxadiazol-2-yl)(4-(4-methylpyrazolo[1,5-a]pyridin-2-yl)-6,7-dihydro-1H-imidazo[4,5-c]pyridin-5(4H)-yl)methanone]",> 5000 nM

# Further lines, results first:
row,AC50,SMILES
1,< 500 nM,"Cc1cccn2nc([C@@H]3c4nc[nH]c4CCN3C(=O)c3nnc(C4CC4)o3)cc12 [Example 924, (S)-(5-cyclopropyl-1,3,4-oxadiazol-2-yl)(4-(4-methylpyrazolo[1,5-a]pyridin-2-yl)-6,7-dihydro-1H-imidazo[4,5-c]pyridin-5(4H)-yl)methanone]"
2,< 500 nM,"Cc1cnn(C)c1-c1nnc(C(=O)N2CCc3[nH]cnc3[C@H]2c2cc3c(C)cccn3n2)o1 [Example 926, (S)-(5-(1,4-dimethyl-1H-pyrazol-5-yl)-1,3,4-oxadiazol-2-yl)(4-(4-methylpyrazolo[1,5-a]pyridin-2-yl)-6,7-dihydro-1H-imidazo[4,5-c]pyridin-5(4H)-yl)methanone]"
3,> 5000 nM,"Cc1cnn(C)c1-c1nnc(C(=O)N2CCc3[nH]cnc3[C@@H]2c2cc3c(C)cccn3n2)o1 [Example 927, (R)-(5-(1,4-dimethyl-1H-pyrazol-5-yl)-1,3,4-oxadiazol-2-yl)(4-(4-methylpyrazolo[1,5-a]pyridin-2-yl)-6,7-dihydro-1H-imidazo[4,5-c]pyridin-5(4H)-yl)methanone]"
4,< 500 nM,"Cc1cnn(C)c1-c1nnc(C(=O)N2CCc3[nH]cnc3[C@H]2c2cc3c(F)cccn3n2)o1 [Example 928, (S)-(5-(1,4-dimethyl-1H-pyrazol-5-yl)-1,3,4-oxadiazol-2-yl)(4-(4-fluoropyrazolo[1,5-a]pyridin-2-yl)-6,7-dihydro-1H-imidazo[4,5-c]pyridin-5(4H)-yl)methanone]"
5,> 5000 nM,"Cc1cnn(C)c1-c1nnc(C(=O)N2CCc3[nH]cnc3[C@@H]2c2cc3c(F)cccn3n2)o1 [Example 929, (R)-(5-(1,4-dimethyl-1H-pyrazol-5-yl)-1,3,4-oxadiazol-2-yl)(4-(4-fluoropyrazolo[1,5-a]pyridin-2-yl)-6,7-dihydro-1H-imidazo[4,5-c]pyridin-5(4H)-yl)methanone]"
6,> 5000 nM,"Cc1cccn2nc([C@H]3c4nc[nH]c4CCN3C(=O)c3oc(-c4cn(C)cn4)nc3C(F)F)cc12 [Example 930, (R)-(4-(difluoromethyl)-2-(1-methyl-1H-imidazol-4-yl)oxazol-5-yl)(4-(4-methylpyrazolo[1,5-a]pyridin-2-yl)-6,7-dihydro-1H-imidazo[4,5-c]pyridin-5(4H)-yl)methanone]"
7,< 500 nM,"Cc1cccn2nc([C@@H]3c4nc[nH]c4CCN3C(=O)c3oc(-c4cn(C)cn4)nc3C(F)F)cc12 [Example 931, (S)-(4-(difluoromethyl)-2-(1-methyl-1H-imidazol-4-yl)oxazol-5-yl)(4-(4-methylpyrazolo[1,5-a]pyridin-2-yl)-6,7-dihydro-1H-imidazo[4,5-c]pyridin-5(4H)-yl)methanone]"
8,< 500 nM,"COc1ccc(-c2nnc(C(=O)N3CCc4[nH]cnc4[C@H]3c3cc4c(C(F)(F)F)cccn4n3)o2)nc1 [Example 932, (S)-(5-(5-methoxypyridin-2-yl)-1,3,4-oxadiazol-2-yl)(4-(4-(trifluoromethyl)pyrazolo[1,5-a]pyridin-2-yl)-6,7-dihydro-1H-imidazo[4,5-c]pyridin-5(4H)-yl)methanone]"
9,> 5000 nM,"COc1ccc(-c2nnc(C(=O)N3CCc4[nH]cnc4[C@@H]3c3cc4c(C(F)(F)F)cccn4n3)o2)nc1 [Example 933, (R)-(5-(5-methoxypyridin-2-yl)-1,3,4-oxadiazol-2-yl)(4-(4-(trifluoromethyl)pyrazolo[1,5-a]pyridin-2-yl)-6,7-dihydro-1H-imidazo[4,5-c]pyridin-5(4H)-yl)methanone]"
10,> 5000 nM,"Cn1cnc(-c2nnc(C(=O)N3CCc4[nH]cnc4[C@@H]3c3cc4c(C(F)(F)F)cccn4n3)o2)c1 [Example 935, (R)-(5-(1-methyl-1H-imidazol-4-yl)-1,3,4-oxadiazol-2-yl)(4-(4-(trifluoromethyl)pyrazolo[1,5-a]pyridin-2-yl)-6,7-dihydro-1H-imidazo[4,5-c]pyridin-5(4H)-yl)methanone]"
11,< 500 nM,"Cc1cccc2cc([C@@H]3c4nc[nH]c4CCN3C(=O)c3nnc(-c4ccn(C(F)F)n4)o3)nn12 [Example 936, (S)-(5-(1-(difluoromethyl)-1H-pyrazol-3-yl)-1,3,4-oxadiazol-2-yl)(4-(7-methylpyrazolo[1,5-a]pyridin-2-yl)-6,7-dihydro-1H-imidazo[4,5-c]pyridin-5(4H)-yl)methanone]"
